Laboratory results published in patent publication US20210386367A1, “DEVICES AND SYSTEMS FOR GASTROINTESTINAL MICROBIOME DETECTION AND MANIPULATION” (Progenity, Inc., priority 2018, published 2021).
Converted amounts (≈) assume the structure as drawn. “Also recorded” adds a separate entry of the source. Like-named read-outs stand apart in the source and are kept apart here.

Legend:
E. coli MMX 1312 = test: Broth microdilution MIC (time-kill study); type: cell-based, Escherichia coli
Escherichia coli = test: Broth microdilution MIC, 50 clinical isolates (incl. ESBL, one NDM-1); type: cell-based
Experimental: Minimal inhibitory concentration (MIC) values were determined by broth microdilution or agar dilution in accordance with guidelines from the Clinical and Laboratory Standards Institute (CLSI; (1) “Methods for Dilution Antimicrobial Susceptibility Tests for Bacteria That Grow Aerobically; Approved Standard; 11th ed.” CLSI standard M07-A11, 2018; (2) “Performance Standards for Antimicrobial Susceptibility Testing; Twenty-Eighth Informational Supplement,” CLSI document M100-S28, 2018; and (3) “Methods for Antimicrobial Susceptibility Testing of Anaerobic Bacteria; Approved Standard—Eighth Edition,” CLSI document M11-A8, 2012).
Tested aerobically by broth microdilution: • Escherichia coli, n=50 • Klebsiella spp., n=50 • Pseudomonas aeruginosa, n=50 • Streptococcus spp., n=50 • Staphylococcus aureus, n=50 • Enterococcus faecalis, n=50 • Enterobacter aerogenes, n=50 • Proteus mirabilis, n=50
Broth microdilution testing of aerobic bacteria was conducted in cation-adjusted Mueller Hinton broth (MHBII). For testing streptococci, lysed horse blood (LHB) was added to MHBII broth at a final concentration of 3%. Where LHB was used, it was added after filtering.
Broth microdilution susceptibility testing in 96-well microplates was conducted in accordance with CLSI methods (1) and (2). Automated liquid handlers were used to conduct serial dilutions and liquid transfers, including the Multidrop 384 (Labsystems, Helsinki, Finland), Biomek 2000, and the Biomek FX (Beckman Coulter, Fullerton, Calif.). All wells in columns 2 through 12 of a standard 96-well microdilution plate (Costar 3795) were filled with 150 μL of the appropriate diluent. Then, 300 μL of the test agents were added to the wells of column 1 of the plates at 100× the highest final concentration to be tested. Serial two-fold dilutions were made across the rows through column 11 using the Biomek 2000. The wells of column 12 contained no drug and served as the growth control wells. This plate served as the “mother plate” from which MIC assay plates or “daughter plates” were made.
The daughter plates were loaded with 190 μL per well of the appropriate medium using the Multidrop 384. The daughter plates were created using the Biomek FX which transferred 2 μL of drug solution from each well of a mother plate to each corresponding well of the daughter plate in a single step. A standardized inoculum of each test organism was prepared per CLSI methods (1) to equal a 0.5 McFarland standard, followed by a dilution of 1:20 for aerobes and 1:10 for anaerobes. The plates were then inoculated with 10 μL of the diluted inoculum using the Biomek 2000 from low to high drug concentration, resulting in a final concentration of approximately 5×10^5 CFU/mL per well. An un-inoculated plate was incubated in parallel for each medium for the purpose of assessing solubility of the drug in the test media.
Inoculated plates were stacked 3 or 4 high, covered with a sterile lid on the top plate, placed into boxes with CO2 planchets (streptococci) or plastic bags (all other isolates). Plates were incubated at 35° C. for 16-24 hr in ambient air for aerobes or for 42-48 hr in the anaerobic environment of the Bactron II anaerobe chamber (Sheldon Manufacturing Co.; Cornelius, Oreg.). Following incubation, the microplates were removed from the incubator and viewed from the bottom using a plate viewer. The MIC values were read and recorded as the lowest concentration of drug that inhibited visible growth of the organism as per CLSI methods (1) and (2).

[1] = system: E. coli, Streptococcus spp., and Bacteroides spp. isolates; type: cell-based
Experimental: Initial values of the MIC were determined by agar dilution in accordance with guidelines from the Clinical and Laboratory Standards Institute (CLSI; (1) “Methods for Dilution Antimicrobial Susceptibility Tests for Bacteria That Grow Aerobically; Approved Standard; 11th ed.,” CLSI standard M07, 2018; (2) “Methods for Antimicrobial Susceptibility Testing of Anaerobic Bacteria; Approved Standard—Eighth Edition,” CLSI document M11-A8, 2012.).
If there were no colonies on the antibiotic selection plates, the spontaneous mutation frequency was reported as less than the frequency observed with one colony to indicate that the spontaneous mutation frequency was less than the limit of detection (one CFU). […] The mutation prevention concentration (MPC) was reported as the lowest concentration for which no mutants were selected.

B. vulgatus ATCC 8482 = test: Time-kill assay; type: cell-based, Bacteroides vulgatus; conditions: 2×, 4×, 8× MIC; 2, 6, 24, 48 hr
E. coli ATCC 25922 = test: Time-kill assay; type: cell-based, Escherichia coli; conditions: 2×, 4×, 8× MIC; 2, 6, 24 hr
[2] = Escherichia coli, MMX1312, broth microdilution, read-out: MIC
[3] = Escherichia coli, read-out: MIC50
[4] = Escherichia coli, read-out: MIC90

Compound | MIC (E. coli MMX 1312; E. coli MMX 1312) | MIC (E. coli MMX 1312; [2]) | % R (Escherichia coli) | % S (Escherichia coli) | Mode (Escherichia coli) | Cumulative percentage of isolates inhibited at MIC (Escherichia coli; 0.015 μg/mL) | Number of test isolates at MIC (Escherichia coli; 0.015 μg/mL) | Cumulative percentage of isolates inhibited at MIC (Escherichia coli; 0.03 μg/mL) | Number of test isolates at MIC (Escherichia coli; 0.03 μg/mL) | Cumulative percentage of isolates inhibited at MIC (Escherichia coli; 0.06 μg/mL) | Number of test isolates at MIC (Escherichia coli; 0.06 μg/mL) | Cumulative percentage of isolates inhibited at MIC (Escherichia coli; 8 μg/mL) | Number of test isolates at MIC (Escherichia coli; 8 μg/mL) | Cumulative percentage of isolates inhibited at MIC (Escherichia coli; 16 μg/mL) | Number of test isolates at MIC (Escherichia coli; 16 μg/mL) | Cumulative percentage of isolates inhibited at MIC (Escherichia coli; 64 μg/mL) | Number of test isolates at MIC (Escherichia coli; 64 μg/mL) | Cumulative percentage of isolates inhibited at MIC (Escherichia coli; >128 μg/mL) | MIC50 (Escherichia coli; [3]) | Number of test isolates at MIC (Escherichia coli; […]) | other results
CO/N=C(\C(=O)N[C@@H]1C(=O)N2C(C(=O)O)=C(CSc3nc(=O)c(=O)[nH]n3C)CS[C@H]12)c1csc(N)n1 [ceftriaxone] | 4 µg/mL (≈ 7.21 µM) | 4 µg/mL (≈ 7.21 µM) | Thirty-six | 64% | 0.03 µg/mL | 1.0% | 1 | 42.0% | 19 | 58.0% | 8 | 68.0% | 2 | 72.0% | 2 | 76.0% | 2 | 100.0% | 0.06 µg/mL (≈ 0.108 µM) | 3 | Cumulative percentage of isolates inhibited at MIC (Escherichia coli; 0.008 μg/mL): 2.0%; Number of test isolates at MIC (Escherichia coli; 0.008 μg/mL): 1; Number of test isolates at MIC (Escherichia coli; >128 μg/mL): 12; MIC90 (Escherichia coli; Escherichia coli): > 128 µg/mL; Cumulative percentage of isolates inhibited at MIC (Escherichia coli; […]): 64.0%; % R (Escherichia coli; listed as CTR): 36%; MIC90 (Escherichia coli; listed as CTR): >128 µg/mL; overall MPC values ([1]; remaining isolates (E. coli, Streptococcus spp.)): 0.12 to 0.25 µg/mL; time-kill kinetics outcome (bactericidal = ≥3 log reduction in CFU per mL) (B. vulgatus ATCC 8482): bactericidal effect was observed at 8×MIC at 6, 24 and 48 hr; at 4×MIC at 6 and 24 hr; and at 2×MIC at 48 hr; time-kill kinetics outcome (bactericidal = ≥3 log reduction in CFU per mL) (E. coli ATCC 25922): bactericidal at 8×MIC at 24 hr
C[C@@H](O)[C@H]1C(=O)N2C(C(=O)O)=C(S[C@@H]3CN[C@H](C(=O)N(C)C)C3)[C@H](C)[C@H]12 [meropenem] | 0.008 µg/mL (≈ 0.0209 µM) | 0.008 µg/mL (≈ 0.0209 µM) | 2% | Ninety-eight | 0.015 µg/mL | 78.0% | 21 | 90.0% | 6 | 92.0% | 1 |  |  |  |  |  |  |  | 0.015 µg/mL (≈ 0.0391 µM) | 3 | relative activity among drugs tested (Escherichia coli): most active drug tested; also recorded: most active agent; Cumulative percentage of isolates inhibited at MIC (Escherichia coli; >8 μg/mL): 100.0%; Number of test isolates at MIC (Escherichia coli; >8 μg/mL): 1; MIC90 (Escherichia coli; [4]): 0.03 µg/mL (≈ 0.0782 µM); Cumulative percentage of isolates inhibited at MIC (Escherichia coli; […]): 98.0%; % R (Escherichia coli; listed as MEM): 2%; % S (Escherichia coli; listed as MEM): 98%; Cumulative percentage of isolates inhibited at MIC (Escherichia coli; ≤0.008 μg/mL): 36.0%; Number of test isolates at MIC (Escherichia coli; ≤0.008 μg/mL): 18; propensity for spontaneous resistance ([1]; SIBO pathogens in vitro): little propensity for resistance to develop spontaneously; MPC values ([1]; across the evaluated isolates): equivalent to 4× the MIC; time-kill kinetics outcome (bactericidal = ≥3 log reduction in CFU per mL) (B. vulgatus ATCC 8482): bactericidal effect at 24 and 48 hr at 4× and 8×MIC; time-kill kinetics outcome (bactericidal = ≥3 log reduction in CFU per mL) (E. coli ATCC 25922): rapid killing and bactericidal activity at the two higher concentrations at 24 hr
COc1c(N2C[C@@H]3CCCN[C@@H]3C2)c(F)cc2c(=O)c(C(=O)O)cn(C3CC3)c12 [moxifloxacin] |  |  |  |  | 0.03 µg/mL | 4.0% | 2 | 34.0% | 15 | 52.0% | 9 | 70.0% | 2 | 88.0% | 9 |  |  |  | 0.06 µg/mL (≈ 0.149 µM) | 1 | MIC range (Escherichia coli): 0.015 to 128 µg/mL; Cumulative percentage of isolates inhibited at MIC (Escherichia coli; 0.5 μg/mL): 60.0%; Number of test isolates at MIC (Escherichia coli; 0.5 μg/mL): 2; Cumulative percentage of isolates inhibited at MIC (Escherichia coli; 2 μg/mL): 64.0%; Number of test isolates at MIC (Escherichia coli; 2 μg/mL): 2; Cumulative percentage of isolates inhibited at MIC (Escherichia coli; 4 μg/mL): 66.0%; Number of test isolates at MIC (Escherichia coli; 4 μg/mL): 1; Cumulative percentage of isolates inhibited at MIC (Escherichia coli; 32 μg/mL): 98.0%; Number of test isolates at MIC (Escherichia coli; 32 μg/mL): 5; Cumulative percentage of isolates inhibited at MIC (Escherichia coli; 128 μg/mL): 100.0%; Number of test isolates at MIC (Escherichia coli; 128 μg/mL): 1; MIC90 (Escherichia coli; [4]): 32 µg/mL (≈ 79.7 µM)
CN[C@H](CC(C)C)C(=O)N[C@H]1C(=O)N[C@@H](CC(N)=O)C(=O)N[C@H]2C(=O)N[C@H]3C(=O)N[C@H](C(=O)N[C@H](C(=O)O)c4cc(O)cc(O)c4-c4cc3ccc4O)[C@H](O)c3ccc(c(Cl)c3)Oc3cc2cc(c3O[C@@H]2O[C@H](CO)[C@@H](O)[C@H](O)[C@H]2O[C@H]2C[C@](C)(N)[C@H](O)[C@H](C)O2)Oc2ccc(cc2Cl)[C@H]1O [vancomycin, Vancomycin] |  |  |  |  |  |  |  |  |  |  |  |  |  |  |  |  |  |  |  |  | MIC (E. coli MMX 1312; Escherichia coli, MMX1312, E. coli MMX 1312, read-out: MIC): > 16 µg/mL
piperacillin/tazobactam [piperacillin-tazobactam] | 16/4 |  | 8% | 80% | 2 µg/mL |  |  |  |  |  |  | 78.0% | 2 | 80.0% | 1 | 92.0% | 3 | 100.0% |  |  | % I (Escherichia coli): 12% ^; MIC50 (Escherichia coli): 2 µg/mL; MIC90 (Escherichia coli): 64 µg/mL; Cumulative percentage of isolates inhibited at MIC (Escherichia coli; 0.5 μg/mL): 6.0%; Number of test isolates at MIC (Escherichia coli; 0.5 μg/mL): 2; Cumulative percentage of isolates inhibited at MIC (Escherichia coli; 1 μg/mL): 26.0%; Number of test isolates at MIC (Escherichia coli; 1 μg/mL): 10; Cumulative percentage of isolates inhibited at MIC (Escherichia coli; 2 μg/mL): 64.0%; Number of test isolates at MIC (Escherichia coli; 2 μg/mL): 19; Cumulative percentage of isolates inhibited at MIC (Escherichia coli; 4 μg/mL): 74.0%; Number of test isolates at MIC (Escherichia coli; 4 μg/mL): 5; Cumulative percentage of isolates inhibited at MIC (Escherichia coli; 32 μg/mL): 86.0%; Number of test isolates at MIC (Escherichia coli; 32 μg/mL): 3; Cumulative percentage of isolates inhibited at MIC (Escherichia coli; 128 μg/mL): 96.0%; Number of test isolates at MIC (Escherichia coli; 128 μg/mL): 2; Number of test isolates at MIC (Escherichia coli; >128 μg/mL): 2; Cumulative percentage of isolates inhibited at MIC (Escherichia coli; ≤[…]): 2.0%; Number of test isolates at MIC (Escherichia coli; ≤[…]): 1
